Tested on: CD1 female mouse brain lipidome
Experiment: Brain-region lipid levels (HPLC/MS/MS lipidomics) 2 h after single i.p. 3 mg/kg CP 55,940 vs vehicle
Type: in vivo
Set-up: N-arachidonoyl phenylalanine level, Mean / N-stearoyl tryptophan level, Mean / N-stearoyl proline level, Mean / N-stearoyl leucine level, Mean / N-stearoyl phenylalanine level, Mean / N-stearoyl serine level, Mean / N-stearoyl methionine level, Mean: unit: moles per gram
Settings: brainstem, PND 50, 3 mg/kg CP 55,940
Protocol: The Bloomington Institutional Animal Care and Use Committee of Indiana University reviewed and approved the animal procedures. Female mice from the CD1 strain were utilized to match our study examining THC’s effects on the brain lipidome ([Leishman et al., 2018]). Mice were given a single i.p. injection of either 3 mg/kg CP or 1:1:18 cremophor:ethanol:saline vehicle (please refer to the section “3 mg/kg CP Is Relevant for Synthetic Cannabinoid Abuse and Has Stronger Effects on the Female Mouse Brain Lipidome During Adolescence” for a justification of dose and use of female mice). Three different age groups were given injections: PND 35 and PND 50 adolescents, and adult mice (PND 113). At least eight mice in each age group received CP and at least eight received vehicle. Matching the THC study time course ([Leishman et al., 2018]), mice were sacrificed via rapid decapitation 2 h after injection. Brains were immediately removed and flash-frozen in liquid nitrogen, and then stored at -80°C until dissections were performed. Brains were dissected on an ice-cold dissection plate into the following regions: STR, HIPP, CER, THAL, CTX, HYP, MID, and STEM. These abbreviations for these brain areas will be used exclusively when discussing the results generated by these specific dissections. Each dissected area was immediately placed in liquid nitrogen and then stored at -80°C until used for lipid extraction.
Tissue extracts were performed as previously described ([Bradshaw et al., 2006]; [Stuart et al., 2013]; [Raboune et al., 2014]; [Leishman et al., 2016a],[b], [2017], [2018]). First, samples were shock frozen in liquid nitrogen, weighed, and transferred to a centrifuge tube. The mass of the largest sample was multiplied by 50 to determine how many milliliters of HPLC-grade methanol (Fisher, Fair Lawn, NJ, United States) to add. Then, samples were spiked with 500 pmol deuterium-labeled NAGly (d8NAGly; Cayman Chemical, Ann Arbor, MI, United States). Samples were placed on ice in darkness for 2 h then individually homogenized and centrifuged at 19,000 × g for 20 min at 20°C. Supernatants were diluted with HPLC water (purified in house) to make a solution of 75% water, 25% supernatant. Lipids were partially purified on C18 solid phase extraction columns (Agilent, Palo Alto, CA, United States). A series of four elutions with 1.5 mL of 60%, 75%, 85%, and 100% methanol were collected ([Stuart et al., 2013]; [Leishman et al., 2016a],[b], [2018]).
As previously described ([Bradshaw et al., 2006]; [Tan et al., 2006]; [Smoum et al., 2010]; [Stuart et al., 2013]; [Tortoriello et al., 2013]; [Raboune et al., 2014]; [Leishman et al., 2016a],[b], [2017], [2018]), samples were analyzed using an Applied Biosystems API 3000 triple quadrupole mass spectrometer with electrospray ionization (Foster City, CA, United States). Using an Agilent XDB-C18 reversed phase analytical column and optimized mobile phase gradients, 20 μL from each elution were chromatographed. Two Shimadzu 10ADvp pumps (Columbia, MD, United States) provided the pressure for gradient elution. Mobile phase A: 20% methanol, 80% water (v/v) and 1 mM ammonium acetate (Sigma, St. Louis, MO, United States). Mobile phase B: 100% methanol, 1 mM ammonium acetate. Every method run began with 0% mobile phase B, reached 100% mobile phase B flowing at 0.2 mL/min, and gradually returned to 0% mobile phase B.
This screening library will be referred to as the lipidome when discussing data from this study. HPLC/MS/MS data were analyzed using Analyst software (Applied Biosystems) ([Bradshaw et al., 2006]; [Tan et al., 2006]; [Stuart et al., 2013]; [Tortoriello et al., 2013]; [Raboune et al., 2014]; [Leishman et al., 2016a],[b], [2017], [2018]). Chromatograms (Supplementary Figure 3) were generated by determining the retention time of analytes from the analytical column with a [M-1] or [M+1] parent peak and a fragmentation peak corresponding to the programmed values. […]

CCCCCCC(C)(C)c1ccc([C@@H]2C[C@H](O)CC[C@H]2CCCO)c(O)c1 [CP 55,940]
N-arachidonoyl glycine level, Mean: 9.26E-12
N-arachidonoyl methionine level, Mean: PISSR
N-arachidonoyl phenylalanine level, Mean: 3.18E-13
N-arachidonoyl proline level, Mean: BDL
N-arachidonoyl serine level, Mean: 5.36E-12
N-arachidonoyl taurine level, Mean: 1.14E-11
N-arachidonoyl tryptophan level, Mean: BDL
N-arachidonoyl tyrosine level, Mean: 2.42E-13
N-docosahexaenoyl GABA level, Mean: 9.05E-13
N-docosahexaenoyl alanine level, Mean: PISSR
N-docosahexaenoyl ethanolamine level, Mean: 3.73E-11
N-docosahexaenoyl glycine level, Mean: 1.5E-12
N-docosahexaenoyl leucine level, Mean: 1.24E-13
N-docosahexaenoyl methionine level, Mean: PISSR
N-docosahexaenoyl phenylalanine level, Mean: 1.89E-13
N-docosahexaenoyl proline level, Mean: BDL
N-docosahexaenoyl serine level, Mean: 1.33E-11
N-docosahexaenoyl tryptophan level, Mean: BDL
N-docosahexaenoyl tyrosine level, Mean: 4.65E-13
N-docosahexaenoyl valine level, Mean: BDL
N-linoleoyl GABA level, Mean: 6.01E-13
N-linoleoyl alanine level, Mean: 1.01E-13
N-linoleoyl ethanolamine level, Mean: 3.38E-11
N-linoleoyl glycine level, Mean: 4.12E-13
N-linoleoyl leucine level, Mean: 4.41E-14
N-linoleoyl methionine level, Mean: PISSR
N-linoleoyl phenylalanine level, Mean: PISSR
N-linoleoyl proline level, Mean: BDL
N-linoleoyl serine level, Mean: 6.34E-11
N-linoleoyl tryptophan level, Mean: BDL
N-linoleoyl tyrosine level, Mean: PISSR
N-linoleoyl valine level, Mean: BDL
N-nervonoyl valine level, Mean: BDL
N-oleoyl GABA level, Mean: 3.95E-12
N-oleoyl alanine level, Mean: 1.3E-12
N-oleoyl dopamine level, Mean: BDL
N-oleoyl ethanolamine level, Mean: 7.29E-11
N-oleoyl glycine level, Mean: 5.38E-12
N-oleoyl leucine level, Mean: 4.93E-13
N-oleoyl methionine level, Mean: 1.84E-13
N-oleoyl phenylalanine level, Mean: 7.71E-13
N-oleoyl proline level, Mean: BDL
N-oleoyl serine level, Mean: 1.1E-10
N-oleoyl tryptophan level, Mean: BDL
N-oleoyl tyrosine level, Mean: 2.91E-13
N-oleoyl valine level, Mean: 6.02E-14
N-palmitoyl GABA level, Mean: 6.41E-12
N-palmitoyl alanine level, Mean: 3.07E-12
N-palmitoyl ethanolamine level, Mean: 6.28E-11
N-palmitoyl glycine level, Mean: 1.47E-11
N-palmitoyl leucine level, Mean: 1.11E-12
